Test results reported in ChEMBL document CHEMBL6109114, “Design, synthesis, and biological evaluation of 4-(2-fluorophenoxy)pyridine derivatives as novel FLT3-ITD inhibitors” (Eur J Med Chem, 2025).

Tests used:
BaF3 [1] = experiment: Antiproliferative activity against mouse BaF3 cells harbouring FLT3-ITD assessed as inhibition of cell growth measured after 3 days by celltiter-glo luminescent cell viability assay; type: functional, cell-based; settings: BaF3, 72 h
BaF3 [2] = experiment: Antiproliferative activity against mouse BaF3 cells harbouring VEGFR2 assessed as inhibition of cell growth measured after 3 days by celltiter-glo luminescent cell viability assay; type: functional, cell-based; settings: BaF3, 72 h
BaF3 [3] = experiment: Antiproliferative activity against wild type mouse BaF3 cells assessed as inhibition of cell growth measured after 3 days by celltiter-glo luminescent cell viability assay; type: functional, cell-based; settings: BaF3, 72 h
MOLM-13 [4] = experiment: Antitumor activity against human MOLM-13 xenografted in male nude mouse assessed as tumor growth inhibition at 20 mg/kg, po administered once daily for 14 days by vernier caliper method relative to control; type: functional; settings: MOLM-13, 336 h, time 14 day, read-out: TGI
MOLM-13 [5] = experiment: Induction of cell cycle arrest in human MOLM-13 cells assessed as accumulation of cells at G2 phase at 0.1 uM incubated for 48 hrs (reference value: […]); type: functional
MOLM-13 [6] = experiment: Induction of apoptosis in human MOLM-13 cells assessed as late apoptotic cells at 0.1 uM incubated for 48 hrs by Annexin V-FITC/PI staining based flow cytometry analysis (reference value: 3.10%); type: functional
MOLM-13 [7] = experiment: Induction of cell cycle arrest in human MOLM-13 cells assessed as accumulation of cells at S phase at 0.1 uM incubated for 48 hrs (reference value: 41.6%); type: functional
MOLM-13 [8] = experiment: Induction of cell cycle arrest in human MOLM-13 cells assessed as accumulation of cells at G1 phase at 0.1 uM incubated for 48 hrs (reference value: 40.3%); type: functional
MOLM-13 [9] = experiment: Induction of apoptosis in human MOLM-13 cells assessed as early apoptotic cells at 0.1 uM incubated for 48 hrs by Annexin V-FITC/PI staining based flow cytometry analysis (reference value: 4.93%); type: functional
MOLM-13 [10] = experiment: Induction of apoptosis in human MOLM-13 cells assessed as necrotic cells at 0.1 uM incubated for 48 hrs by Annexin V-FITC/PI staining based flow cytometry analysis (reference value: 0.077%); type: functional
MOLM-13 [11] = experiment: Induction of apoptosis in human MOLM-13 cells assessed as viable cells at 0.1 uM incubated for 48 hrs by Annexin V-FITC/PI staining based flow cytometry analysis (reference value: 91.9%); type: functional; settings: read-out: Activity

Compound | IC50 (BaF3 [1]) | IC50 (BaF3 [2]) | IC50 (BaF3 [3]) | also measured
Cc1cc(=O)n(-c2cc(F)cc(Cl)c2)nc1C(=O)Nc1ccc(Oc2ccnc(NC(=O)N3CC(O)C3)c2)c(F)c1 | 0.73 µM | 1.04 µM | > 10 µM | –
COc1ccc(-n2nc(C(=O)Nc3ccc(Oc4ccnc(NC(=O)N5CC(O)C5)c4)c(F)c3)c(C)cc2=O)cc1 | 1.13 µM | 4.21 µM | > 10 µM | –
Cc1cc(=O)n(-c2cc(Cl)ccc2F)nc1C(=O)Nc1ccc(Oc2ccnc(NC(=O)NC3CC3)c2)c(F)c1 | 7.81 µM | 5.02 µM | > 10 µM | –
Cc1cc(=O)n(-c2cc(Cl)ccc2F)nc1C(=O)Nc1ccc(Oc2ccnc(NC(=O)N3CCC(C(C)(C)O)CC3)c2)c(F)c1 | 1.67 µM | 2.44 µM | > 10 µM | –
Cc1ccc(-n2nc(C(=O)Nc3ccc(Oc4ccnc(NC(=O)N5CC(O)C5)c4)c(F)c3)c(C)cc2=O)cc1 | 1.52 µM | 2.01 µM | > 10 µM | –
Cc1cc(=O)n(-c2cc(F)ccc2Cl)nc1C(=O)Nc1ccc(Oc2ccnc(NC(=O)N3CC(O)C3)c2)c(F)c1 | 1.88 µM | 5.32 µM | > 10 µM | –
Cc1cc(=O)n(-c2cccc(Cl)c2)nc1C(=O)Nc1ccc(Oc2ccnc(NC(=O)N3CC(O)C3)c2)c(F)c1 | 0.35 µM | 0.44 µM | 9.2 µM | –
Cc1cc(=O)n(-c2ccc(F)c(Cl)c2)nc1C(=O)Nc1ccc(Oc2ccnc(NC(=O)N3CC(O)C3)c2)c(F)c1 | 0.4 µM | 0.54 µM | > 10 µM | –
Cc1cc(=O)n(-c2ccc(F)cc2F)nc1C(=O)Nc1ccc(Oc2ccnc(NC(=O)N3CC(O)C3)c2)c(F)c1 | 0.55 µM | 1.41 µM | > 10 µM | –
Cc1cc(-n2nc(C(=O)Nc3ccc(Oc4ccnc(NC(=O)N5CC(O)C5)c4)c(F)c3)c(C)cc2=O)ccc1F | 0.63 µM | 0.7 µM | > 10 µM | –
COc1cc(F)ccc1-n1nc(C(=O)Nc2ccc(Oc3ccnc(NC(=O)N4CC(O)C4)c3)c(F)c2)c(C)cc1=O | 0.85 µM | 1.48 µM | > 10 µM | –
Cc1cc(=O)n(-c2ccc(F)c(F)c2)nc1C(=O)Nc1ccc(Oc2ccnc(NC(=O)N3CC(O)C3)c2)c(F)c1 | 0.47 µM | 0.58 µM | > 10 µM | –
Cc1cc(=O)n(-c2cc(Cl)ccc2F)nc1C(=O)Nc1ccc(Oc2ccnc(NC(=O)NC3CCOCC3)c2)c(F)c1 | 6.3 µM | 2.05 µM | > 10 µM | –
Cc1cc(=O)n(-c2ccc(Br)cc2)nc1C(=O)Nc1ccc(Oc2ccnc(NC(=O)N3CC(O)C3)c2)c(F)c1 | 1.38 µM | 3.07 µM | > 10 µM | –
Cc1cc(F)ccc1-n1nc(C(=O)Nc2ccc(Oc3ccnc(NC(=O)N4CC(O)C4)c3)c(F)c2)c(C)cc1=O | 0.77 µM | 1.25 µM | > 10 µM | –
Cc1cc(=O)n(-c2ccc(Cl)c(F)c2)nc1C(=O)Nc1ccc(Oc2ccnc(NC(=O)N3CC(O)C3)c2)c(F)c1 | 0.56 µM | 0.79 µM | > 10 µM | –
CCN(CC)CCNC(=O)c1c(C)[nH]c(/C=C2\C(=O)Nc3ccc(F)cc32)c1C [SUNITINIB] | – | – | – | inhibition in vivo at 20 mg/kg (MOLM-13 [4]): 73.2%
Cc1cc(=O)n(-c2cc(Cl)c(F)c(Cl)c2)nc1C(=O)Nc1ccc(Oc2ccnc(NC(=O)N3CC(O)C3)c2)c(F)c1 | 0.49 µM | 1.45 µM | > 10 µM | –

Compound | IC50 (BaF3 [1]) | IC50 (BaF3 [2]) | IC50 (BaF3 [3]) | also measured
Cc1cc(=O)n(-c2ccccc2F)nc1C(=O)Nc1ccc(Oc2ccnc(NC(=O)N3CC(O)C3)c2)c(F)c1 | 0.67 µM | 0.85 µM | > 10 µM | –
Cc1cc(=O)n(-c2ccccc2Cl)nc1C(=O)Nc1ccc(Oc2ccnc(NC(=O)N3CC(O)C3)c2)c(F)c1 | 1.87 µM | 2.96 µM | > 10 µM | –
Cc1cc(=O)n(-c2ccc(C(F)(F)F)cc2)nc1C(=O)Nc1ccc(Oc2ccnc(NC(=O)N3CC(O)C3)c2)c(F)c1 | 0.99 µM | 1.72 µM | > 10 µM | –
Cc1cc(=O)n(-c2cc(Cl)ccc2F)nc1C(=O)Nc1ccc(Oc2ccnc(NC(=O)N3CCC(C)CC3)c2)c(F)c1 | 4.16 µM | 5.51 µM | > 10 µM | –
Cc1cc(=O)n(-c2ccccc2)nc1C(=O)Nc1ccc(Oc2ccnc(NC(=O)N3CC(O)C3)c2)c(F)c1 | 0.7 µM | 1.16 µM | > 10 µM | –
Cc1cc(=O)n(-c2ccc(Cl)cc2)nc1C(=O)Nc1ccc(Oc2ccnc(NC(=O)N3CC(O)C3)c2)c(F)c1 | 0.61 µM | 0.72 µM | > 10 µM | –
Cc1cc(=O)n(-c2ccc(S(C)(=O)=O)cc2)nc1C(=O)Nc1ccc(Oc2ccnc(NC(=O)N3CC(O)C3)c2)c(F)c1 | > 10 µM | – | > 10 µM | –
Cc1cc(=O)n(-c2cc(Cl)ccc2F)nc1C(=O)Nc1ccc(Oc2ccnc(NC(=O)N3CCC(N4CCN(C)CC4)CC3)c2)c(F)c1 | 0.8 µM | 1.19 µM | 8.5 µM | –
CNC(=O)c1cc(Oc2ccc(NC(=O)Nc3ccc(Cl)c(C(F)(F)F)c3)cc2)ccn1 [SORAFENIB] | 0.1 µM | 0.018 µM | – | Activity (MOLM-13 [5]): 0%; Activity (MOLM-13 [6]): 47%; Activity (MOLM-13 [7]): 35.4%; Activity (MOLM-13 [8]): 62.9%; Activity (MOLM-13 [9]): 26.7%; Activity (MOLM-13 [10]): 0.66%; viability at 0.1 µM (MOLM-13 [11]): 25.7%
Cc1cc(=O)n(-c2ccc(C#N)cc2)nc1C(=O)Nc1ccc(Oc2ccnc(NC(=O)N3CC(O)C3)c2)c(F)c1 | > 10 µM | – | > 10 µM | –
COC1CCN(C(=O)Nc2cc(Oc3ccc(NC(=O)c4nn(-c5cc(Cl)ccc5F)c(=O)cc4C)cc3F)ccn2)C1 (stereo not given) | 0.52 µM | 1.12 µM | > 10 µM | –
Cc1cc(=O)n(-c2cc(Cl)ccc2F)nc1C(=O)Nc1ccc(Oc2ccnc(NC(=O)N3CCC(C)(O)C3)c2)c(F)c1 (stereo not given) | 0.61 µM | 1.01 µM | 7.8 µM | –
CCc1nc(C(N)=O)c(Nc2ccc(N3CCC(N4CCN(C)CC4)CC3)c(OC)c2)nc1NC1CCOCC1 [GILTERITINIB] | 0.13 µM | – | – | –
Cc1cc(=O)n(-c2ccc(OC(F)(F)F)cc2)nc1C(=O)Nc1ccc(Oc2ccnc(NC(=O)N3CC(O)C3)c2)c(F)c1 | 3.91 µM | – | > 10 µM | –
COc1cc2nccc(Oc3ccc(NC(=O)N/N=C/c4cn(-c5ccccc5OC)nn4)cc3)c2cc1OC | 5.82 µM | 8.07 µM | – | –
Cc1cc(=O)n(-c2ccc(F)cc2)nc1C(=O)Nc1ccc(Oc2ccnc(NC(=O)N3CC(O)C3)c2)c(F)c1 | 0.49 µM | 0.77 µM | > 10 µM | –
Cc1cc(=O)n(-c2ccc(I)cc2)nc1C(=O)Nc1ccc(Oc2ccnc(NC(=O)N3CC(O)C3)c2)c(F)c1 | 4.3 µM | – | > 10 µM | –
Cc1cc(=O)n(-c2cc(Cl)ccc2F)nc1C(=O)Nc1ccc(Oc2ccnc(NC(=O)N3CCC(O)C3)c2)c(F)c1 (stereo not given) | 0.6 µM | 1.29 µM | > 10 µM | –
